Source: ChEMBL document CHEMBL1201862, “PubChem BioAssay data set” (2004)
Active and inactive are the calls of the source.

Columns and labels:
[1] = molecular target: Inward rectifier potassium channel 2 (Mus musculus, UniProt P35561); test: Manual electrophysiological patch clamp assay for SAR compounds that inhibit/block inward-rectifying potassium ion channel Kir2.1. [Related pubchem assays: 1843 (Summary assay for Kir2.1 inhibitor assays.), 1672 (Primary HTS of 305616 compounds where 2592 were identified as active.)]; type: functional
[2] = molecular target: Peroxisome proliferator-activated receptor gamma/Nuclear receptor coactivator 2 (Homo sapiens, UniProt P37231); type: functional;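 note: agonist potency for raising coactivator recruitment to the receptor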
Sequence of Peroxisome proliferator-activated receptor gamma/Nuclear receptor coactivator 2 (P37231 whole entry): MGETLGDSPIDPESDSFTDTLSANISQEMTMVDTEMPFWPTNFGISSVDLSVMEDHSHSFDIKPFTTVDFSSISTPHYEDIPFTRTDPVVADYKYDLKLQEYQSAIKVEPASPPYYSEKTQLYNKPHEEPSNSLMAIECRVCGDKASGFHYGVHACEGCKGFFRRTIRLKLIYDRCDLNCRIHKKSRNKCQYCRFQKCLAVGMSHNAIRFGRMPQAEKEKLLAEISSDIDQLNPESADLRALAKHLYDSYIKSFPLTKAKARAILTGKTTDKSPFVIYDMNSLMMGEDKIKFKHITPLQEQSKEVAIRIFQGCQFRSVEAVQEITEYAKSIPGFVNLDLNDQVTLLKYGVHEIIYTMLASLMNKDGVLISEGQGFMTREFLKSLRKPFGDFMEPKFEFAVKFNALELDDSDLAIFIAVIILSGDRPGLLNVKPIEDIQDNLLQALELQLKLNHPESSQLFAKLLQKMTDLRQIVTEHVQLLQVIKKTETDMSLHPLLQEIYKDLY
Sequence of Peroxisome proliferator-activated receptor gamma/Nuclear receptor coactivator 2 (Q15596 whole entry, further chain): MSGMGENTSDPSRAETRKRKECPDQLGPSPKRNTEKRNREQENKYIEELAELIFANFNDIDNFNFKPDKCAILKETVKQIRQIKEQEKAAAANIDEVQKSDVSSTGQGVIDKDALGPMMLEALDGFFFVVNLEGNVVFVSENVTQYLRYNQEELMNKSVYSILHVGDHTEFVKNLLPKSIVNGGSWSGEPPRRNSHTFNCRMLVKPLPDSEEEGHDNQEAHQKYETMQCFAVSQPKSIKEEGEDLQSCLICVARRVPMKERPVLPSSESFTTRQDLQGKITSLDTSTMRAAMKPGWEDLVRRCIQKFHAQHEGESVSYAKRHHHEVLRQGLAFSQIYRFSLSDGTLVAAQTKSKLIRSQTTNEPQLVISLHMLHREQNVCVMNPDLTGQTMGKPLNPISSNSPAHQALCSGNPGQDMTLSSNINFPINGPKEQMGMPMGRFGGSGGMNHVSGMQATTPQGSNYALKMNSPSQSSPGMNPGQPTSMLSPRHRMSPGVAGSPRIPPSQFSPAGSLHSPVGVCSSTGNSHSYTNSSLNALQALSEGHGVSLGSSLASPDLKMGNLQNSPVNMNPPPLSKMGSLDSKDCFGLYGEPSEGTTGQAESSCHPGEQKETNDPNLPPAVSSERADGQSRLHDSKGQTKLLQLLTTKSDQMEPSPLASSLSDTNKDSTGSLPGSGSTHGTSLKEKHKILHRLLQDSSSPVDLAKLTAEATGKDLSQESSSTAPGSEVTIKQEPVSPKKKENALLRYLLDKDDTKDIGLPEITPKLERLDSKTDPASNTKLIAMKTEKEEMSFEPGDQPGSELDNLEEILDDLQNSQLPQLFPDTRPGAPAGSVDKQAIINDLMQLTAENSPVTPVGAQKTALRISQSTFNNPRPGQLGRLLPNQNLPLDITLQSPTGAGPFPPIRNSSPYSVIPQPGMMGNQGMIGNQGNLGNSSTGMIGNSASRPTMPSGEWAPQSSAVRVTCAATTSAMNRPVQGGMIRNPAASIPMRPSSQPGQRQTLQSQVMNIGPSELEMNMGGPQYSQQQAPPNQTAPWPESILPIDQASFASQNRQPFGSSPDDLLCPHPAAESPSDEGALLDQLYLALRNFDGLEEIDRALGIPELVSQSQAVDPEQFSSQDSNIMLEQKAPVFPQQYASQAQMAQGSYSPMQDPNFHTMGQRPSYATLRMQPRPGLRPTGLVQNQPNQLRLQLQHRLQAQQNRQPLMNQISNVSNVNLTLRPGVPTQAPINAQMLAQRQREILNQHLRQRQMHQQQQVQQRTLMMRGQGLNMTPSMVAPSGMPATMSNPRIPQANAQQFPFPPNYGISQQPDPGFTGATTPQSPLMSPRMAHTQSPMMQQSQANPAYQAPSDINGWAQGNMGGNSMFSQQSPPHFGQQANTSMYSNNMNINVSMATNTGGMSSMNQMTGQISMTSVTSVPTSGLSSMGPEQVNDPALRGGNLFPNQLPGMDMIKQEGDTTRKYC

[3] = molecular target: Peroxisome proliferator-activated receptor gamma/Nuclear receptor coactivator 1 (Homo sapiens, UniProt P37231); type: functional;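 note: agonist potency as compounds enhance coactivator SRC-1 recruitment to PPARgamma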
[4] = molecular target: Peroxisome proliferator-activated receptor gamma/Nuclear receptor coactivator 3 (Homo sapiens, UniProt P37231); type: functional;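 note: agonist potency for raising coactivator recruitment to the receptor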
Sequence of Peroxisome proliferator-activated receptor gamma/Nuclear receptor coactivator 3 (P37231 whole entry): as the sequence (P37231 whole entry) above
Sequence of Peroxisome proliferator-activated receptor gamma/Nuclear receptor coactivator 3 (Q9Y6Q9 whole entry, further chain): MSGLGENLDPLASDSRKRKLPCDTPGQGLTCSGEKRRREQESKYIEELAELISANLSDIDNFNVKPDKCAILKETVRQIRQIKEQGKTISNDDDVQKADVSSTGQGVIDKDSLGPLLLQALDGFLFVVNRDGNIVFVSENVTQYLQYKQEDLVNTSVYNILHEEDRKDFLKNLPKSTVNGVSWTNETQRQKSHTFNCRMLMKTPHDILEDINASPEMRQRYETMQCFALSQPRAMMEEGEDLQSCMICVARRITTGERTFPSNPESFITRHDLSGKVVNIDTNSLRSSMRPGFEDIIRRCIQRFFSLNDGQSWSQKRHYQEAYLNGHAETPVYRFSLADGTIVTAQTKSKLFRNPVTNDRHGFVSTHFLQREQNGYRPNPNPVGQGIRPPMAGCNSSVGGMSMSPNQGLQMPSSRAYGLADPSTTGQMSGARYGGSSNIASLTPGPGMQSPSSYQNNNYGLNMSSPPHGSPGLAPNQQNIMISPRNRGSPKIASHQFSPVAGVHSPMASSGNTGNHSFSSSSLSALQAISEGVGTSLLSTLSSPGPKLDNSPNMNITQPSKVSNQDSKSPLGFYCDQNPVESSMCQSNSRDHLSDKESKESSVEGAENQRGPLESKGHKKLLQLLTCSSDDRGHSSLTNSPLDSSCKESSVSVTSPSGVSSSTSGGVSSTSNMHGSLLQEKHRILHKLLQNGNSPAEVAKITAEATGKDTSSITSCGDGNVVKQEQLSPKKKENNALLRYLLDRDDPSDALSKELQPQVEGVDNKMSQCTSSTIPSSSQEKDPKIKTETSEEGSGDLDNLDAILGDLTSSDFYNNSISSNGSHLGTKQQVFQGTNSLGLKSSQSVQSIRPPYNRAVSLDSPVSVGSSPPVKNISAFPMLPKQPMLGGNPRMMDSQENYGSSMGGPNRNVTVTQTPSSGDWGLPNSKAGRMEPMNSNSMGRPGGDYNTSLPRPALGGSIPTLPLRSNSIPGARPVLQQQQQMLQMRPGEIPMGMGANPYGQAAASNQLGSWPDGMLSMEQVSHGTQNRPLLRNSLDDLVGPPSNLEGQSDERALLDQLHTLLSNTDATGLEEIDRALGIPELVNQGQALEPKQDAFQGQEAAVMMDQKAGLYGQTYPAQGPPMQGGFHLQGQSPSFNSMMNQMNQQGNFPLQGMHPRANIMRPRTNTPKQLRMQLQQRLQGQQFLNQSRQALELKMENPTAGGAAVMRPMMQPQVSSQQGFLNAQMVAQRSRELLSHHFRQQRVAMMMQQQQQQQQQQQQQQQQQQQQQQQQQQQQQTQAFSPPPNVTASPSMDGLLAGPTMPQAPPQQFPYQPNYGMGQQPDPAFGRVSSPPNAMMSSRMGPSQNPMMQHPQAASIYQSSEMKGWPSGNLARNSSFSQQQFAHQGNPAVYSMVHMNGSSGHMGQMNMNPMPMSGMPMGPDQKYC

Estrogen receptor beta = Estrogen receptor beta (Homo sapiens, UniProt Q92731); test: blockers of SRC-3 recruitment to ERβ – biochemical, ELISA, streptavidin-HRP readout, orthogonal assay, confirmation (AID 1060)
[5] = molecular target: Induced myeloid leukemia cell differentiation protein Mcl-1 (Homo sapiens, UniProt Q07820); type: functional
Sequence of Induced myeloid leukemia cell differentiation protein Mcl-1 (Q07820 whole entry): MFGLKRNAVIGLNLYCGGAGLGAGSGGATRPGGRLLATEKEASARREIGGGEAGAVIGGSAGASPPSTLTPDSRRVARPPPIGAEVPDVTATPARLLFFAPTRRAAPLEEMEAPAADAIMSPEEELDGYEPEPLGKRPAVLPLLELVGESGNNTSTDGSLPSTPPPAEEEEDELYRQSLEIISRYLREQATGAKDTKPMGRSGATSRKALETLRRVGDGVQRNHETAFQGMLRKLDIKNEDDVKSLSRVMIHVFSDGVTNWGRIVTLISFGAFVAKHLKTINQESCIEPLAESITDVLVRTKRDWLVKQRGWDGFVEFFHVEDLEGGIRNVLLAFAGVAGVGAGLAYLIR

Large T antigen = Large T antigen (Simian virus 40, UniProt P03070); type: functional, Betapolyomavirus macacae;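 note: Confirmatory-stage PubChem screen for compounds that inhibit SV40 T antigen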
Sequence of Large T antigen (P03070 whole entry): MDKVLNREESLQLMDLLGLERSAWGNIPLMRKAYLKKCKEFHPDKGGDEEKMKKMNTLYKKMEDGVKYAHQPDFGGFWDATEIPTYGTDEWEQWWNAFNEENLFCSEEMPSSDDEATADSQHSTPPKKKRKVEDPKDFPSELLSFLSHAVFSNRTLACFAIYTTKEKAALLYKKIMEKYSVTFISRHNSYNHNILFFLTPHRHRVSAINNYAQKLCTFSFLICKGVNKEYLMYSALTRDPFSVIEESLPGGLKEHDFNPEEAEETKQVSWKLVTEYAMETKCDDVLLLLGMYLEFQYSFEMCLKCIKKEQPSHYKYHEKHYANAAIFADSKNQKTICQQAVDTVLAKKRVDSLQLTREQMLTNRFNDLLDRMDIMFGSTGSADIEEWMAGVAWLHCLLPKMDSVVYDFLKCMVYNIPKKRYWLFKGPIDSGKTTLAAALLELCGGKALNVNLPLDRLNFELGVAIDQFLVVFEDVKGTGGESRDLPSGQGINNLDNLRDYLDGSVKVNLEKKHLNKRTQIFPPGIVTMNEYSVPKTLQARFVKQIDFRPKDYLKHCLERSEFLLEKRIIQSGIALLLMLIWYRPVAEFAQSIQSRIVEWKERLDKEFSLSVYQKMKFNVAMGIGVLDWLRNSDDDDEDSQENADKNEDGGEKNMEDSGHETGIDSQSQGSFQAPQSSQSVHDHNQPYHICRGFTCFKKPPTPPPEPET

[6] = molecular target: Photoreceptor-specific nuclear receptor (Homo sapiens, UniProt Q9Y5X4); type: functional;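 note: potency for compounds that break the NR2E3 corepressor complex and count as activators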
[7] = molecular target: Peroxisome proliferator-activated receptor gamma/Nuclear receptor corepressor 2 (Homo sapiens, UniProt P37231+Q9Y618); type: functional
NS3 = NS3 (Hepatitis C virus, UniProt A3EZJ3); test: PubChem AID 2173; parameters: species or system Hepacivirus hominis
Aminopeptidase N = molecular target: T1, Aminopeptidase N (Plasmodium falciparum FcB1/Columbia, UniProt O96935); test: malaria alanyl aminopeptidase activity blockers – biochemical, fluorogenic H-Leu-NHMec substrate, 1536-well (AID 1445); parameters: species or system Plasmodium falciparum 3D7, 3D7
T1 sequence (O96935 whole entry): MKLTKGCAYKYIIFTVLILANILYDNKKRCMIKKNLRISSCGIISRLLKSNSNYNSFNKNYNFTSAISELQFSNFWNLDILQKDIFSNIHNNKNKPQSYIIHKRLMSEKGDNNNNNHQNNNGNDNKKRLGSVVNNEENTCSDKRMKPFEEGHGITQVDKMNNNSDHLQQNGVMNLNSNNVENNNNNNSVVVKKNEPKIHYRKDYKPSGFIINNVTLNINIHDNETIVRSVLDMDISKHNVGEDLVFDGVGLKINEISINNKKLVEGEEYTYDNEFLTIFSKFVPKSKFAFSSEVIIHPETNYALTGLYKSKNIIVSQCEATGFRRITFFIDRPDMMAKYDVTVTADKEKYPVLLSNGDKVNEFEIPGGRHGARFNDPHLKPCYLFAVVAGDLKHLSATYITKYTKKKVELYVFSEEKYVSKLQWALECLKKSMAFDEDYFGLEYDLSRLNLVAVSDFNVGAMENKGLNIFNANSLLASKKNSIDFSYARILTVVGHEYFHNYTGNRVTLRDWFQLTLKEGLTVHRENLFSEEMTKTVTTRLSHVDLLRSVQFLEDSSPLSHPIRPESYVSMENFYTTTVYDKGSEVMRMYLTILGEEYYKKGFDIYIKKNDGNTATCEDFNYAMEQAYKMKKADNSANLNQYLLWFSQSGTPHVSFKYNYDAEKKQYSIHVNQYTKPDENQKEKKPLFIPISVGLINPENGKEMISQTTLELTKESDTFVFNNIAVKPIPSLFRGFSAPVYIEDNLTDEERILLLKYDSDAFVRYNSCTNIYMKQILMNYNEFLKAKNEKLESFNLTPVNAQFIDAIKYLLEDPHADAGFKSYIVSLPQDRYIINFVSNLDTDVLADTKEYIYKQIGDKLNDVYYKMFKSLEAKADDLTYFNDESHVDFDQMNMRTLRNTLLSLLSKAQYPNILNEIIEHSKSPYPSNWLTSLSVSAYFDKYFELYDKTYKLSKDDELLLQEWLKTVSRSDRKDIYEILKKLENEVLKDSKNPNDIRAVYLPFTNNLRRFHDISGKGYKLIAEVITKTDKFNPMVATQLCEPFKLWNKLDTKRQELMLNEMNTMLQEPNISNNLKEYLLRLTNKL

[8] = CCR5-tropic HIV-1 fusion blockers – cell-based, CCR5-tropic Env, dose response (AID 2279); type: functional
[9] = molecular target: T2, Calpain-2 catalytic subunit (Sus scrofa, UniProt P43367); test: m-calpain protease blockers, concentration series – biochemical, fluorogenic peptide substrate, dose response (AID 1420); type: functional
T2 sequence (P43367 whole entry): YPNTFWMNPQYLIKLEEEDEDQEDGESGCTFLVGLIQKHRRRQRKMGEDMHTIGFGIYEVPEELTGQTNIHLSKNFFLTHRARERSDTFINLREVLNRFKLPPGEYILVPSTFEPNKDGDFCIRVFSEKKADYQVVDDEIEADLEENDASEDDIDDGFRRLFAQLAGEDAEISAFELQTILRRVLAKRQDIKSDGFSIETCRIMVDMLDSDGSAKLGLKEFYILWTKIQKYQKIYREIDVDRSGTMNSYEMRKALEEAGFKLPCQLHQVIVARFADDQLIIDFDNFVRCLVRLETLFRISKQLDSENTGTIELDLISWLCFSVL

[10] = Counterscreen for IDE inhibitors: Luminescence-based cell-based high throughput dose response assay to identify compounds that are cytotoxic to HEK cells. [Related pubchem assays: 434962 (Primary screen (IDE inhibitors in singlicate)), 449730 (Counterscreen (Cytotoxicity in triplicate)), 435028 (Confirmation (IDE inhibitors in triplicate)) …; type: functional; conditions: HEK293
Insulin-degrading enzyme = molecular target: T3, Insulin-degrading enzyme (Homo sapiens, UniProt P14735); test: Dose Response: Fluorescence polarization-based cell-based high throughput dose response assay for inhibitors of insulin-degrading enzyme (IDE). [Related pubchem assays: 434962 (Primary screen (IDE inhibitors in singlicate)), 449730 (Counterscreen (Cytotoxicity in triplicate)), 435028 (Confirmation (IDE inhibitors in triplicate)), 434984 (Summary …; type: functional
T3 sequence (P14735 whole entry): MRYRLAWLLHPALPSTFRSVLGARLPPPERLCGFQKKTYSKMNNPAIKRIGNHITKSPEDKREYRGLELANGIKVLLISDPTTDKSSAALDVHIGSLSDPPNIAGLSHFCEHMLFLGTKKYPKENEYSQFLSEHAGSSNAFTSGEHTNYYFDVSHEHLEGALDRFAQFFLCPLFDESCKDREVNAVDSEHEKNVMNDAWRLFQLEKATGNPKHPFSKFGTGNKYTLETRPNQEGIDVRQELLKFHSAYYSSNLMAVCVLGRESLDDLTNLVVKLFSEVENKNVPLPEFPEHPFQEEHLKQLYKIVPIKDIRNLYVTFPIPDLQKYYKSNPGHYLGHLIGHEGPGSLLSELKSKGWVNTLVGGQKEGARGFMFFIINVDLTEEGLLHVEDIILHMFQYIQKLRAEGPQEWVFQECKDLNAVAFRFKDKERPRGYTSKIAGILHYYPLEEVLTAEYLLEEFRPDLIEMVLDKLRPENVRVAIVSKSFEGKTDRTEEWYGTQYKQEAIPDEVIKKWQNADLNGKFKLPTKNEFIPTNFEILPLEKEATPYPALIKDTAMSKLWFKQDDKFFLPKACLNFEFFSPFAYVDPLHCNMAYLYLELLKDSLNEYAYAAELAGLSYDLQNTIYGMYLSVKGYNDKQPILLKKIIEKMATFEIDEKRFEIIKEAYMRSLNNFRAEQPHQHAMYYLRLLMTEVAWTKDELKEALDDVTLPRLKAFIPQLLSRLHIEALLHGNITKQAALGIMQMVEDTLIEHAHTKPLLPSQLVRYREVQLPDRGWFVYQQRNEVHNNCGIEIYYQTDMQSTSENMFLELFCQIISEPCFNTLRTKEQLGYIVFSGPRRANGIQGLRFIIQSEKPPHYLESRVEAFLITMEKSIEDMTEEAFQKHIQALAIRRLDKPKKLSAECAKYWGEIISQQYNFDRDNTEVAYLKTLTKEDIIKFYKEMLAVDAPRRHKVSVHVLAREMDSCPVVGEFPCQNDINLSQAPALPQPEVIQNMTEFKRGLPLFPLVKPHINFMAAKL

HeLa = test: Cytotoxicity counterscreen assay for transcriptional activators of heat shock protein 70 (Hsp70). [Related pubchem assays: 1203, 1252 ]; type: functional; conditions: Homo sapiens;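 note: cells exposed to compound for 16 hours before readout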
Paired box protein Pax-8 = Paired box protein Pax-8 (Homo sapiens, UniProt Q06710); test: PAX8 transcriptional activity inhibition in RMG-I – RMG-I cells, luciferase, cherry-pick, dose response (AID 687027); type: functional, cell-based;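 note: luciferase reporter driven by Pax8 target thyroperoxidase promoter measured by SteadyGlo luminescence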
[11] = Luminescence-based counterscreen assay for KLF5 inhibitors: dose response cell-based high throughput screening assay to identify cytotoxic compounds using the IEC-6 intestinal epithelial cell line. [Related pubchem assays: 1700 (Primary screen.), 1834 (Confirmation screen.), 1858 (Summary AID.), 1905 (Counterscreen.)]; type: functional
[12] = general cell-killing toxicity readout – plate reader, dry powder samples, cytotoxicity control for PAX8 inhibitor project, dose response (AID 743021); type: functional, cell-based
[13] = Luminescence Cell-Based Dose Response HTS to Identify Inhibitors of 5'UTR Stem-Loop Driven Prion Protein mRNA Translation in H4 Neuroglioblastoma Cells. [Related pubchem assays: 1827 (Project Summary), 1813 (Primary HTS)]; type: functional
[14] = alpha-synuclein stem-loop luciferase translation blockers – H4 neuroglioma cells, luminescence, confirmation (AID 1988); type: functional, cell-based
[15] = luciferase reporter signal suppression in cells – H4 neuroglioma cells, luminescence, dose response (AID 1990); type: functional, cell-based
[16] = Luminescence Cell-Based Dose Confirmation HTS to Identify Activators of 5'UTR Stem-Loop Driven Alpha-Synuclein mRNA Translation in H4 Neuroglioblastoma Cells. [Related pubchem assays: 1829 (Project Summary), 1814 (Primary HTS)]; type: functional
[17] = fluconazole-exposed Candida albicans growth modulators – fluorescence, retest, confirmation (AID 2467); type: functional, cell-based
[18] = NIH-3T3 fibroblast cytotoxicity, dose response, cytotoxicity control, cell-based, fluorescence, Alamar Blue, secondary assay (AID 2327); type: functional;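 note: NIH-3T3 mouse fibroblasts cultured with fluconazole at 8 µg/mL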
[19] = molecular target: T4, Heat shock factor protein 1 (Mus musculus, UniProt P38532); test: decrease of HSF1-responsive luciferase luminescence – cell-based, NIH3T3, dose retest, confirmation (AID 2382); type: functional;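 note: NIH3T3 fibroblasts with HSF1-driven luciferase reporter stressed by proteasome inhibitor MG132; luminescence from HSF1-driven luciferase expression after 8 hours of MG132 stress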
T4 sequence (P38532 whole entry): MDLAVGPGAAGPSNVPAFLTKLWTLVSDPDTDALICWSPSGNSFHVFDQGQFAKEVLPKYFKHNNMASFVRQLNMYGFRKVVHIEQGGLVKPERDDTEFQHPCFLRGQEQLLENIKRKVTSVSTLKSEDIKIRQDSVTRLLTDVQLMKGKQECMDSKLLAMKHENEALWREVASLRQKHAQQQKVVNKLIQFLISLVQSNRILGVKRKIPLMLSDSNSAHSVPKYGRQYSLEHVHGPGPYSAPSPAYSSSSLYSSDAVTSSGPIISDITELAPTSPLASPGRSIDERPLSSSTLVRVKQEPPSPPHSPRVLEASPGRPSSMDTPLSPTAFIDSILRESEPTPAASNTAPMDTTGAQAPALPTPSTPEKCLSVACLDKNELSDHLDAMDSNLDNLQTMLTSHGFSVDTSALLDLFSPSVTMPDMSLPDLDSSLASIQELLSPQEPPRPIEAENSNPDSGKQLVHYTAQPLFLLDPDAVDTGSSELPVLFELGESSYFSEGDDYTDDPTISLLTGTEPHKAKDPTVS

[20] = Luminescence Cell-Based Dose Response HTS to Identify Activators of Luciferase Translation or Activity in H4 […] Cells. [Related pubchem assays: 1829 (Project Summary), 1814 (Primary HTS)]; type: functional
[21] = M. tuberculosis H37Rv growth inhibitors, H37Rv strain (AID 1626); type: functional

COc1ccc(CNCc2ccccc2C)cc1
IC50 [1]: 9.08 µM (active)

O=C(Nc1nc(-c2ccccc2)nc2ccccc12)c1ccc(F)cc1
EC50 [2]: 13.5 µM (not active)
EC50 [3]: 17.2 µM (not active)
EC50 [4]: 23 µM (not active)

Cc1cc(-c2nc3c4c5c(sc4nc(O)n3n2)CCC5)c(C)o1
IC50 (Estrogen receptor beta): 18.6 µM (not active)
IC50 [5]: 3.05 µM (active)
IC50 (Large T antigen): 24.8 µM (active)

Cc1ccc(C(=O)C2=C(O)C(=O)N(Cc3cccnc3)C2c2cccc(Oc3ccccc3)c2)o1 (centres undefined)
IC50 [6]: 5.73 µM (active)
IC50 [7]: 2.46 µM (active)
IC50 (NS3): 6.11 µM (active)

COc1cc(/C=C2\SC(=S)NC2=O)ccc1OS(=O)(=O)c1ccccc1
IC50 (Aminopeptidase N): 38.6 µM (active)
IC50 [5]: 2.79 µM (active)
IC50 [8]: 16.5 µM (active)
IC50 [9]: 11.1 µM (not active)

CC(Oc1ccc2c3c(c(=O)oc2c1)CCCC3)C(=O)NCc1ccncc1 (centres undefined)
IC50 [10]: 36.4 µM (not active)
IC50 (Insulin-degrading enzyme): > 55.9 µM (not active)

CN(C)/C=C1/NC(=S)NC1=O
CC50 (HeLa): > 99 µM (not active)

C/C(=N\NC(=O)c1[nH]nc2c1CCC2)c1cccs1
AC50 (Paired box protein Pax-8): 5.19 µM (active)
IC50 [11]: 10.1 µM (not active)
AC50 [12]: 8.65 µM (active)
EC50 [13]: 4.49 µM (active)
EC50 [14]: 2.95 µM (active)
EC50 [15]: 4.85 µM (active)

COc1cc(/C=N/N=C(/Nc2ccc(C)cc2)c2nc3ccccc3s2)ccc1O
EC50 [16]: 17.6 µM (active)
EC50 [17]: > 38 µM (not active)
EC50 [18]: > 150 µM (inactive)
EC50 [19]: < 0.16 µM (active)
EC50 [20]: 0.154 µM (active)
IC50 [21]: > 100 µM (active)
